According to patent US7622506B2, “Naphthalenedione compounds for treating inflammation related disorders and microbial infection” (SunTen Phytotech Co., Ltd., priority 2006, dated 2009):
Like-named read-outs stand apart in the source and are kept apart here.

Columns and labels:
5-Lipoxygenase = biological target: T1, 5-Lipoxygenase (Homo sapiens, UniProt P09917); test: Inhibition of 5-Lipoxygenase activity; format: biochemical
T1 sequence (P09917 1-674): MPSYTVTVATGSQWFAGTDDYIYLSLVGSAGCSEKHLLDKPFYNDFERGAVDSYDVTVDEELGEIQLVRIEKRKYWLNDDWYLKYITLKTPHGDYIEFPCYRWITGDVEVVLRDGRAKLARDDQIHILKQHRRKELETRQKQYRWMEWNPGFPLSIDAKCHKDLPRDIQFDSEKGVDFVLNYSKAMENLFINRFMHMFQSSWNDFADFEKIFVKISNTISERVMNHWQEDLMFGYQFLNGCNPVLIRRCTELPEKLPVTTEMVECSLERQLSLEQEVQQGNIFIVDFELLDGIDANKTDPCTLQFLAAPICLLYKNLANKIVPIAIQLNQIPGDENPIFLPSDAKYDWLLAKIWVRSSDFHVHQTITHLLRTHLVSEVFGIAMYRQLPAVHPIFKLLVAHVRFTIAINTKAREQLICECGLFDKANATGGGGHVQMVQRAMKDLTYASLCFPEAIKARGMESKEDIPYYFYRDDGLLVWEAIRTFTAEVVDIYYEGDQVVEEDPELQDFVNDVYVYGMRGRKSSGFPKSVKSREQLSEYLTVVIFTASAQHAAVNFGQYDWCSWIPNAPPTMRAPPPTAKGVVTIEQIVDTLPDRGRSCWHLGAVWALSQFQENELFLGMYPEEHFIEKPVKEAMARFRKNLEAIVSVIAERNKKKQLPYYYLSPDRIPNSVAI
From the text: 5-Lipoxygenase has been known to be a key enzyme in the bio-synthesis of leukotrienes, important mediators in inflammatory and allergic processes. […] The experiment was repeated using various concentrations of the compounds.

[1] = tested on: methicillin-resistant Staphylococcus aureus (ATCC33591); test: Growth inhibition of methicillin-resistant Staphylococcus aureus (ATCC33591); format: cell-based; details: Table 5; repeated with various concentrations
From the text: In this example, the inhibition by the aforementioned compounds or extracts on the growth of methicillin-resistant Staphylococcus aureus (ATCC33591) was studied by a method modified from those described in Modugno et al., Antimicrobial Agents and Chemotherapy, 1994, 38: 2362-2368, and Misiek et al., Antimicrobial Agents Chemotherapy, 1973, 3: 40-48.
The above experiments on Staphylococcus aureus and Propionibacterium acnes were repeated using various concentrations of the compounds.

[2] = 5-Lipoxygenase, IC50 (μM), Table 2A
[3] = Table 2B, read-out: 5-Lipoxygenase, IC50
[4] = Table 2A, concentration 10 μM, read-out: % Inhibition
[5] = Table 2A, read-out: 5-Lipoxygenase, IC50

Molecule	inhibition at 10 µM (5-Lipoxygenase)	Anti-microbial Activity, effective concentration range, MRSA (μM) [1]	Anti-microbial Activity, effective concentration range, MRSA [1]	inhibition at 10 µM (5-Lipoxygenase; [4])	IC50 (5-Lipoxygenase; [5])	also measured
CC(C)=CCCC1=CC(=O)c2c(O)ccc(O)c2C1=O [DSK, 5,8-dihydroxy-2-(4-methylpent-3-enyl)naphthalene-1,4-dione]	53%	7.8~26.0 μM	–	–	–	inhibition at 10 µg/mL (5-Lipoxygenase): 64%; IC50 (5-Lipoxygenase; [2]): 7.01 µM; IC50 (5-Lipoxygenase; 5-Lipoxygenase, IC50, Table 2B): 20.1 µM
epigallocatechin-3 gallate [EGCG, reference compound]	–	–	–	–	–	% Inhibition (5-Lipoxygenase; Table 2B, concentration 100 μM): 58%; IC50 (5-Lipoxygenase; [3]): 87.2 µM
Cc1cc(C2CCCCC2)n(O)c(=O)c1 [Ciclpirox Olamine, reference compound]	–	–	37.3 µM	–	–	inhibition at 30 µM (5-Lipoxygenase; Table 2B, concentration 30 μM): 66%; IC50 (5-Lipoxygenase; [3]): 16.9 µM
Gentamicin [reference compound]	–	–	2.1 µM	–	–	–
CCC(C)C(=O)O[C@H](CC=C(C)C)C1=CC(=O)c2c(O)ccc(O)c2C1=O (some centres unmarked) [MBSK, 1-(5,8-dihydroxy-1,4-dioxo-1,4-dihydronaphthalen-2-yl)-4-methylpent-3-enyl 2-methylbutanoate]	–	–	2.7 µM	98%	1.37 µM	–
CC(C)=CC[C@@H](OC(=O)C=C(C)C)C1=CC(=O)c2c(O)ccc(O)c2C1=O [BSK]	–	–	2.8 µM	99%	1.2 µM	–
CC(C)=CC[C@@H](OC(=O)C(C)C)C1=CC(=O)c2c(O)ccc(O)c2C1=O [ISK, (R)-1-(5,8-dihydroxy-1,4-dioxo-1,4-dihydronaphthalen-2-yl)-4-methylpent-3-enyl isobutyrate]	–	–	7.7 µM	98%	1.54 µM	–
CC(C)=CC[C@@H](O)C1=CC(=O)c2c(O)ccc(O)c2C1=O [SK, (R)-5,8-dihydroxy-2-(1-hydroxy-4-methylpent-3-enyl)naphthalene-1,4-dione]	101%	10.4~34.7 μM	–	–	–	IC50 (5-Lipoxygenase): 0.39 µM; inhibition at 1 µM (5-Lipoxygenase): 70%; inhibition at 1 µg/mL (5-Lipoxygenase): 51%; IC50 (5-Lipoxygenase; 5-Lipoxygenase, IC50, Table 2B): 2.93 µM
CC(=O)O[C@H](CC=C(C)C)C1=CC(=O)c2c(O)ccc(O)c2C1=O [ASK, (R)-1-(5,8-dihydroxy-1,4-dioxo-1,4-dihydronaphthalen-2-yl)-4-methylpent-3-enyl acetate]	99%	0.9~3.0 μM	–	–	–	IC50 (5-Lipoxygenase; [2]): 1.46 µM
